We go through 1 compound from paper PMC8766756, “Insights on Cancer Cell Inhibition, Subcellular Activities, and Kinase Profile of Phenylacetamides Pending 1H-Imidazol-5-One Variants” (Frontiers in Pharmacology, 2022).

SMILES strings stand for the structures. “Also recorded” adds a separate entry of the source.

Holding throughout (type): cell-based
One series deals with AKT 1/2/3. Briefly: Human Phospho-Kinase Array in HL60 cells. As to conditions: 10 h (KIM-161 365 nM). An excerpt:
(§1) We also measured changes in kinase activities of some selected Ser/Thr kinases using the Human Phospho-Kinase Array® kit (R&D Systems) which encompasses phosphoprotein-specific capture antibodies spotted at a certain location (in duplicates) on a nitrocellulose membrane. The signal intensities, detected by a sandwich immunoassay, are proportional to the amount of each phosphokinase in the cell lysate (Figure 8).
(§2) FIGURE 8 Phosphokinase proteome profile of KIM-161 in HL60 cell line. (A) Cells lysates were prepared after 10 h treatment with KIM-161 and applied to the membranes prespotted with the different antibodies. […] The height of each bar represents the average intensity of certain protein signals in treated cells/untreated × 100. Therefore, the dotted line represents the control percentage (100%).
(§3) The phosphorylation profile of 48 kinases was performed using the Proteome Profiler Human Phospho-Kinase Array an antibody array kit, by R&D Systems (Minneapolis, MN, USA). Total protein was extracted from the cell lysates treated with 365 nM KIM-161 for 10 h using the lysis buffer provided in the kit and quantified using the Bio-Rad DC Protein Assay kit (USA). The nitrocellulose membrane set (A&B), pre-spotted with the capture antibodies, was first blocked with 1 ml of Array buffer 1 at RT for 1 h in an 8-well multi-dish on a rocking platform shaker. Approximately 600 µg of protein concentrate (<334 µL) was diluted in the Array buffer 1 to a final volume of 2 ml. 1 ml of the protein sample was added onto the membrane set and incubated overnight at 4°C on a rocking platform shaker. Subsequently, membranes were washed with 15 ml of 1× wash buffer thrice for 5 min at RT, and the excess buffer was completely drained. The membranes A&B were then incubated with appropriate detection antibody cocktails A&B that were reconstituted using the 1× Array buffer 2/3 for 2 h at RT. After the incubation was complete, the membranes were washed with 15 ml of 1× wash buffer thrice for 5 min at RT, and the excess buffer was completely drained. Streptavidin-HRP (1:2000), diluted in 1× Array buffer 2/3, was applied onto the membranes and incubated for 30 min at RT on a rocking platform shaker. The membranes were washed thrice, and Chemi Reagent 1&2 were applied in equal volumes for detection on C-DiGit®Blot Scanner (LI-COR Odyssey Imaging Systems, Lincoln, Nebraska, USA) using the Image Studio 5.0 software.

Another series concerns STAT2 (Y689). Briefly: Human Phospho-Kinase Array in HL60 cells.
Description: as §1, §2, §3

For another series, the system named is AMPKα1. Briefly: Human Phospho-Kinase Array in HL60 cells.
Description: as §1, §2, §3

In the next series the test system is Chk-2. Briefly: Human Phospho-Kinase Array in HL60 cells.
Description: as §1, §2, §3

In another series the test system is HCT116 cells. Briefly: Cytotoxic assay in presence of antioxidant N-acetylcysteine. The following applies: 48 h, MTT. From the text: Oxidative stress expressed as the reactive oxygen species (ROS) level is an important marker in cell death under the effect of certain cytotoxic drugs. Elevation of ROS may occur as a direct mechanism of some drugs such as Adriamycin ([Kim et al., 2019]) and trans-cinnamaldehyde ([Afanas’ev, 2011]; [Ka et al., 2003]) (safe covalent natural compound) or indirectly by the modulation of certain cellular contents ([Teppo et al., 2017]; [Perillo et al., 2020]). The involvement of ROS elevation and oxidative stress in the cytotoxic activities of KIM-161 on HCT116 was assessed. In this assay, the antioxidant N-acetylcysteine (NAC) was added at a very high concentration (5 mM) to check if it reverses the cytotoxic activities of KIM-161 on HCT116.
FIGURE 10 Effect of antioxidant pretreatment on viability of HCT116 treated with KIM-161. […] Cell viability was expressed as a percentage of vehicle control and was measured by the MTT assay (average of two independent experiments). Statistical significance was determined by two-way ANOVA using Šídák’s multiple comparisons test. * = p < 0.05; *** = p ≤ 0.001; **** = p < 0.0001.
HCT116 cells were seeded at a density of 5 × 10^4 cells/well in 96-well plates and left overnight to adhere. […] Cell viability was expressed as a percentage of the vehicle control (1% v/v ethanol) and was assessed using the MTT assay (data are expressed as mean ± SEM). […]

Setting [1] is: HL60, 365 nM, 10 h, vs untreated, listed as KIM-161.
The mark [2] stands for this setting: STAT2 spot, HL60 cells, 10 h (KIM-161 365 nM).
Where [3] appears, read: AMPKα1 spot, HL60 cells, 10 h (KIM-161 365 nM).
Where [4] appears, read: Chk-2 spot, HL60 cells, 10 h (KIM-161 365 nM).

As for `COc1ccc(/C=C2\N=C(C)N(c3ccc(CC(=O)NCc4ccccc4)cc3)C2=O)cc1` [Compound 4c, (Z)-N-Benzyl-2-(4-(4-(4-methoxybenzylidene)-2-methyl-5-oxo-4,5-dihydro-1H-imidazol-1-yl)phenyl)acetamide], the “Normalized to HK” value in the series with AKT 1/2/3 (AKT 1/2/3 spot) is 0.00; in the series on STAT2 (Y689) (setting [2]), 0.00; with AMPKα1 (setting [3]) it was 0.0019; in the series on Chk-2 (setting [4]) it was 0.00913. For the same compound, the “Normalized x10K” value was found to be 0.00 in the series on AKT 1/2/3 (AKT 1/2/3 spot), 0.00 in the series on STAT2 (Y689) (setting [2]), 18.91 in the series on AMPKα1 (setting [3]) and 91.25 with Chk-2 (setting [4]). In addition, the Signal in the series with AKT 1/2/3 (AKT 1/2/3 spot) stood at 0.00; in the series with STAT2 (Y689) (setting [2]) it was 0.00; with AMPKα1 (setting [3]), 6.64; in the series with Chk-2 (setting [4]), 32.06. The activity at 0.365 µM came to 0% in the series with AKT 1/2/3 (Homo sapiens, HL-60, AKT 1/2/3 spot, untreated = 100, read-out: % Ctrl); 0% in the series with STAT2 (Y689) (Homo sapiens, HL-60, STAT2 spot, HL60 cells, 10 h (KIM-161 365 nM), untreated = 100, read-out: % Ctrl); 27.9% with AMPKα1 (Homo sapiens, HL-60, AMPKα1 spot, HL60 cells, 10 h (KIM-161 365 nM), untreated = 100, read-out: % Ctrl). In addition, in the series on STAT2 (Y689) (setting [1]), the “change of STAT2 phosphokinase signal” value was “strongly suppresses; also recorded: strong downregulation”. For the same compound, the “change of AMPKα1 phosphorylation” value in the series on AMPKα1 (setting [1]) is on record as “downregulated; also recorded: to a quarter of its level compared to the control”. Moreover, in the series with Chk-2 (HL60, 365 nM, 10 h, vs untreated), the “change of Chk-2 activity” value is recorded as “upregulated”. Also, the “change of cytotoxic effect by NAC addition” value is recorded as “slightly altered” with HCT116 cells (HCT116, KIM-161 0.5 µM, NAC 5 mM pretreatment 1 h) and “higher involvement of this factor in the anticancer effect” in the series with HCT116 cells (HCT116, increasing KIM-161 concentration (1.0, 5.0 µM), NAC 5 mM).
